One assay deals with T1, CCDC6-RET-BaF3 (Homo sapiens, UniProt P07949).
T1 construct: fused on or other part: Q16204 (Coiled-coil domain-containing protein 6)
Description: Growth inhibition of CCDC6-RET-BaF3 cells stably transfected with kinase (MTS). Type of assay: cell-based. The note with it: 48 h, read-out: CCDC6-RET (IC50/nM). As for the experimental part: (§1) Growth inhibitory activity of compounds on cell lines stably transfected with kinase
(§2) The activity of compounds against kinase RET is evaluated by their effect of inhibiting growth of cell lines stably transfected with kinase CCDC6-RET-BaF3, KIF5B-RET-BaF3, and wild-type BaF3 (Proc. Natl. Acad. Sci. USA., 2006, 103, 3153-8.). The growth of the cell lines stably transfected with kinase CCDC6-RET-BaF3, KIF5B-RET-BaF3 depends on their kinase activity. If a compound can inhibit the activity of the kinase RET per se or the activity of the RET signaling pathway, the compound can inhibit the growth of BaF3 cells stably transfected with kinase. […] Therefore, a larger ratio between IC50 of a compound to wild-type BaF3 and IC50 of the compound to the cell lines stably transfected with kinase CCDC6-RET-BaF3, KIF5B-RET-BaF3 indicates better targeting.
(§3) The specific test method is given as follows:
(§4) 1) Medium: DMEM (Dulbecco's modified eagle medium) or RPMI 1640 (containing 10% fetal bovine serum, 100 μg/mL ampicillin, 100 μg/mL streptomycin).
(§5) 2) Reagents: MTS reaction solution (containing 2 mg/mL of MTS [3-(4,5-dimethylthiazol-2-yl)-5-(3-carboxymethoxyphenyl)-2-(4-sulfophenyl)-2H-tetrazolium, inner Salt]; 100 μg/mL PES (phenazine […])).
(§6) 3) Compound test: cells stably transfected with kinase (CCDC6-RET-BaF3, KIF5B-RET-BaF3) or wild-type BaF3 cells (2×10^4 cells/well) were incubated into a 96-well culture plate, the volume of cell culture fluid was 90 μL, and then 10 μL of the compound at each gradient concentration was added (the highest concentration was 10 μM, which was diluted stepwise by ⅓, and 8 concentration points were set in total; the system contained 0.1% DMSO (dimethyl sulfoxide)). The cell plate with uniformly mixed compound was cultured in a cell culture incubator (37° C.; 5% CO2) for 48 h, then 20 μL of MTS reaction solution was added, uniformly mixed and incubated in the cell culture incubator (37° C.; 5% CO2) for 1-4 hr, OD values at 490 nm were measured by a microplate reader (VARIOSKAN FLASH, Thermo). Three parallels were set in each group of experiments, with 0.1% (a final concentration) DMSO as a negative control, and a medium without cells or compounds as a blank control. The cell growth inhibition rate was calculated by the following formula: Cell growth inhibition rate %=1−(ODexperimental group−ODblank group)/(ODnegative group−ODblank group)×100%
(§7) 4) IC50 calculation: The semi-inhibitory concentration of the compound acting on cell growth was calculated using GradPad Prism 5 software according to the measured cell growth inhibition rate.

The next assay concerns the target T2, KIF5B-RET-BaF3 (Homo sapiens, UniProt P07949).
T2 construct: fused on or other part: P33176 (Kinesin-1 heavy chain)
Kind of assay: Growth inhibition of KIF5B-RET-BaF3 cells stably transfected with kinase (MTS). Type of assay: cell-based. The note with it: 48 h, read-out: KIF5B-RET (IC50/nM). On the procedure: as §1, §2, §3, §4, §5, §6, §7

Data on 42 molecules can be found in patent publication US11319322B2, “Substituted aryl ether compound, preparation method thereof, pharmaceutical composition and use thereof” (Xiamen University, priority 2017, dated 2022).

T2 sequence (P07949 whole entry, change not shown, the tested form may be a part): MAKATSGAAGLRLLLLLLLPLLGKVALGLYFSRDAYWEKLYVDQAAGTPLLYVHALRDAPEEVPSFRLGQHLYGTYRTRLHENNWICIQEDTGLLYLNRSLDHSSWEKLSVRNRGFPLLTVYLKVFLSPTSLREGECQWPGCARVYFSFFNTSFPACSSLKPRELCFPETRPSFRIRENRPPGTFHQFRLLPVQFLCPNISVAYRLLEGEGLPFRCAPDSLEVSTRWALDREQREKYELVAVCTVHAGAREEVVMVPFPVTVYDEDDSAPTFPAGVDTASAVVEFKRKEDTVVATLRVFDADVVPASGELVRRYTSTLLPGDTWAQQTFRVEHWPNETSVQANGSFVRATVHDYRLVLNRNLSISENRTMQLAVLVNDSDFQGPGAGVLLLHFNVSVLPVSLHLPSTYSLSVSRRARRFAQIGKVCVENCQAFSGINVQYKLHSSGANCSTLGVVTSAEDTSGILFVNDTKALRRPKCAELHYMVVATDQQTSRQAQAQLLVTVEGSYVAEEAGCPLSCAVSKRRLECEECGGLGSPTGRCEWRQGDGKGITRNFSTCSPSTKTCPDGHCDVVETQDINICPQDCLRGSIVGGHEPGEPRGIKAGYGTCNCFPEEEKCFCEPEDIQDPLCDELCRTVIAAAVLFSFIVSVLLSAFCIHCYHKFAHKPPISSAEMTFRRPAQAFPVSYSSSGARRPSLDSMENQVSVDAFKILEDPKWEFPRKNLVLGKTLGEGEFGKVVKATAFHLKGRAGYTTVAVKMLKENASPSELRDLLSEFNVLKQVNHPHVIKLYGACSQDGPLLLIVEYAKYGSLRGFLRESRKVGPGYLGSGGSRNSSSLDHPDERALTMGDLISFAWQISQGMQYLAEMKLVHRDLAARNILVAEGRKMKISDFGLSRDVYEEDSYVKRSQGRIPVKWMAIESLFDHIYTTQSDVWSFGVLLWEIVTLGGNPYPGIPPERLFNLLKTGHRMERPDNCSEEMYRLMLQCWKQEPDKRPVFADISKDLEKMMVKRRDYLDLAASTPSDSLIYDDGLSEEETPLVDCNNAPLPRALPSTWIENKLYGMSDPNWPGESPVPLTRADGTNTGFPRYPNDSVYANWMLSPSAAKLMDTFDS
T1 sequence (P07949 whole entry, change not shown, the tested form may be a part): as above

With `Cc1ccc(Oc2nc(-c3ccncc3)nc3c2ncn3C)cc1C(=O)Nc1cccc(C(F)(F)F)c1` [I-f-2], the GI50 on CCDC6-RET-BaF3 came out at 4850 nM; at KIF5B-RET-BaF3, 8120 nM. For `CC(C)n1cnc2c(Oc3cccc(NC(=O)c4ccc(CN5CCN(C)CC5)c(C(F)(F)F)c4)c3)nc(-c3ccncc3)nc21` [I-h-1], in that order: 4930 nM and 2290 nM. For `Cc1ccc(Oc2nc(-c3ccncc3)nc3c2ncn3C)cc1NC(=O)c1ccc(CN2CCN(C)CC2)c(C(F)(F)F)c1` [I-j-1], in that order: 0.741 nM and 2.74 nM. On the same counts, the results for `Cc1ccc(C(=O)Nc2ccc(CN3CCN(C)CC3)c(C(F)(F)F)c2)cc1Oc1nc(-c2cccnc2)nc2c1ncn2C` [I-m-2] are 710 nM and 1300 nM. As for `Cc1ccc(C(=O)Nc2ccc(CN3CCN(C)CC3)c(C(F)(F)F)c2)cc1Oc1nc(-c2ccncc2)nc2c1ncn2C` [I-m-3], the results for the GI50 on CCDC6-RET-BaF3 and at KIF5B-RET-BaF3 were 447 nM and 1050 nM, respectively. For `Cc1ccc(Oc2nc(-c3ccccc3)nc3c2ncn3C)cc1C(=O)Nc1ccc(CN2CCN(C)CC2)c(C(F)(F)F)c1` [I-n-4], in that order: 2700 nM and 2370 nM.

For the molecule `Cc1ccc(Oc2nc(-c3cccc(Cl)c3)nc3c2ncn3C)cc1C(=O)Nc1ccc(CN2CCN(C)CC2)c(C(F)(F)F)c1` [I-n-5], the GI50 came to 1540 nM at CCDC6-RET-BaF3 and 1510 nM at KIF5B-RET-BaF3.

As to `Cc1ccc(Oc2nc(-c3ccc(Cl)cc3)nc3c2ncn3C)cc1C(=O)Nc1ccc(CN2CCN(C)CC2)c(C(F)(F)F)c1` [I-n-6], the GI50 is 1780 nM on CCDC6-RET-BaF3 and 1380 nM at KIF5B-RET-BaF3.

On to `Cc1ccc(Oc2nc(-c3cccc(O)c3)nc3c2ncn3C)cc1C(=O)Nc1ccc(CN2CCN(C)CC2)c(C(F)(F)F)c1` [I-n-7], for which the GI50 at CCDC6-RET-BaF3 amounted to 1560 nM; at KIF5B-RET-BaF3, 1450 nM. Consider `Cc1ccc(Oc2nc(-c3ccc(O)cc3)nc3c2ncn3C)cc1C(=O)Nc1ccc(CN2CCN(C)CC2)c(C(F)(F)F)c1` [I-n-8], for which the GI50 at CCDC6-RET-BaF3 turned out to be 1210 nM; on KIF5B-RET-BaF3 it was 1330 nM. In the case of `Cc1ccc(Oc2nc(-c3cccc(N)c3)nc3c2ncn3C)cc1C(=O)Nc1ccc(CN2CCN(C)CC2)c(C(F)(F)F)c1` [I-n-9], the GI50 on CCDC6-RET-BaF3 came to 1550 nM; at KIF5B-RET-BaF3 it was 1480 nM.

Take `Cc1ccc(Oc2nc(-c3ccc(N)cc3)nc3c2ncn3C)cc1C(=O)Nc1ccc(CN2CCN(C)CC2)c(C(F)(F)F)c1` [I-n-10]: the GI50 at CCDC6-RET-BaF3 and on KIF5B-RET-BaF3 was 1400 nM in each case.

As for `Cc1ccc(Oc2nc(-c3ccoc3)nc3c2ncn3C)cc1C(=O)Nc1ccc(CN2CCN(C)CC2)c(C(F)(F)F)c1` [I-n-11], the GI50 on CCDC6-RET-BaF3 worked out at 1200 nM; on KIF5B-RET-BaF3, 1960 nM. Regarding `Cc1ccc(Oc2nc(-c3ccsc3)nc3c2ncn3C)cc1C(=O)Nc1ccc(CN2CCN(C)CC2)c(C(F)(F)F)c1` [I-n-12], the GI50 was 2030 nM on CCDC6-RET-BaF3 and 1860 nM on KIF5B-RET-BaF3. On the same counts, the results for `Cc1ccc(Oc2ncnc3c2ncn3C)cc1C(=O)Nc1ccc(CN2CCN(C)CC2)c(C(F)(F)F)c1` [I-n-13] are 3010 nM and 4850 nM. For `Cc1ccc(Oc2nc(-c3ccncc3)nc3c2ncn3C(C)C)cc1C(=O)Nc1ccc(CN2CCN(C)CC2)c(C(F)(F)F)c1` [I-n-14], in that order: 163 nM and 47 nM.

With `CN1CCN(Cc2ccc(NC(=O)c3cc(Oc4nc(-c5cccnc5)nc5c4ncn5C)ccc3Cl)cc2C(F)(F)F)CC1` [I-o-1], the figures for the GI50 on CCDC6-RET-BaF3 and on KIF5B-RET-BaF3 were 1470 nM and 1390 nM, respectively. On the same counts, the results for `CN1CCN(Cc2ccc(NC(=O)c3cc(Oc4nc(-c5ccncc5)nc5c4ncn5C)ccc3Cl)cc2C(F)(F)F)CC1` [I-o-2] are 20.6 nM and 3.15 nM. `CN1CCN(Cc2ccc(NC(=O)c3cc(Oc4nc(-c5ccccc5)nc5c4ncn5C)ccc3Cl)cc2C(F)(F)F)CC1` [I-o-3]: the GI50 on CCDC6-RET-BaF3 and at KIF5B-RET-BaF3 was 1380 nM throughout.

In the case of `CN1CCN(Cc2ccc(NC(=O)c3cc(Oc4nc(-c5cccc(Cl)c5)nc5c4ncn5C)ccc3Cl)cc2C(F)(F)F)CC1` [I-o-4], the GI50 on CCDC6-RET-BaF3 worked out at 1400 nM; at KIF5B-RET-BaF3 it was 1410 nM.

As to `CN1CCN(Cc2ccc(NC(=O)c3cc(Oc4nc(-c5ccc(Cl)cc5)nc5c4ncn5C)ccc3Cl)cc2C(F)(F)F)CC1` [I-o-5], the figures for the GI50 at CCDC6-RET-BaF3 and on KIF5B-RET-BaF3 were 1320 nM and 1390 nM, respectively.

`CN1CCN(Cc2ccc(NC(=O)c3cc(Oc4nc(-c5cccc(O)c5)nc5c4ncn5C)ccc3Cl)cc2C(F)(F)F)CC1` [I-o-6]: the GI50 at CCDC6-RET-BaF3 was 1290 nM; on KIF5B-RET-BaF3 it was 1360 nM. As for `CN1CCN(Cc2ccc(NC(=O)c3cc(Oc4nc(-c5ccc(O)cc5)nc5c4ncn5C)ccc3Cl)cc2C(F)(F)F)CC1` [I-o-7], the GI50 was 903 nM on CCDC6-RET-BaF3 and 1210 nM at KIF5B-RET-BaF3.

With `CN1CCN(Cc2ccc(NC(=O)c3cc(Oc4nc(-c5cccc(N)c5)nc5c4ncn5C)ccc3Cl)cc2C(F)(F)F)CC1` [I-o-8], the results for the GI50 at CCDC6-RET-BaF3 and at KIF5B-RET-BaF3 were 1590 nM and 1490 nM, respectively.

Consider `CN1CCN(Cc2ccc(NC(=O)c3cc(Oc4nc(-c5ccc(N)cc5)nc5c4ncn5C)ccc3Cl)cc2C(F)(F)F)CC1` [I-o-9], for which the GI50 on CCDC6-RET-BaF3 was found to be 1390 nM; on KIF5B-RET-BaF3, 1500 nM. As to `CN1CCN(Cc2ccc(NC(=O)c3cc(Oc4nc(-c5ccoc5)nc5c4ncn5C)ccc3Cl)cc2C(F)(F)F)CC1` [I-o-10], the GI50 on CCDC6-RET-BaF3 is 1370 nM; at KIF5B-RET-BaF3 it was 1910 nM.

As for `CN1CCN(Cc2ccc(NC(=O)c3cc(Oc4nc(-c5ccsc5)nc5c4ncn5C)ccc3Cl)cc2C(F)(F)F)CC1` [I-o-11], the GI50 at CCDC6-RET-BaF3 amounted to 1680 nM; on KIF5B-RET-BaF3, 1560 nM. For `CC(C)n1cnc2c(Oc3ccc(Cl)c(C(=O)Nc4ccc(CN5CCN(C)CC5)c(C(F)(F)F)c4)c3)nc(-c3ccncc3)nc21` [I-o-12], in that order: 55.2 nM and 154 nM. Take `Cc1ccc(C(=O)Nc2cccc(C(F)(F)F)c2)cc1Oc1nc(-c2cccnc2)nc2c1cnn2C` [II-e-1]: the GI50 was 1970 nM on CCDC6-RET-BaF3 and 2240 nM on KIF5B-RET-BaF3. On the same counts, the results for `CN1CCN(Cc2ccc(C(=O)Nc3cccc(Oc4nc(-c5cccnc5)nc5c4cnn5C)c3)cc2C(F)(F)F)CC1` [II-h-1] are 1110 nM and 953 nM. `CN1CCN(Cc2ccc(C(=O)Nc3cccc(Oc4nc(-c5ccncc5)nc5c4cnn5C)c3)cc2C(F)(F)F)CC1` [II-h-2]: the GI50 came to 140 nM on CCDC6-RET-BaF3 and 106 nM at KIF5B-RET-BaF3.

For the molecule `Cc1ccc(NC(=O)c2ccc(CN3CCN(C)CC3)c(C(F)(F)F)c2)cc1Oc1nc(-c2cccnc2)nc2c1cnn2C` [II-i-1], the figures for the GI50 at CCDC6-RET-BaF3 and on KIF5B-RET-BaF3 were 477 nM and 411 nM, respectively. As to `Cc1ccc(Oc2nc(-c3ccncc3)nc3c2cnn3C)cc1NC(=O)c1ccc(CN2CCN(C)CC2)c(C(F)(F)F)c1` [II-j-2], the GI50 on CCDC6-RET-BaF3 worked out at 13.1 nM. Same read-out and setting: next, `CCn1ncc2c(Oc3cc(C(=O)Nc4ccc(CN5CCN(C)CC5)c(C(F)(F)F)c4)ccc3C)nc(-c3ccncc3)nc21` [II-m-22]: over 10000 nM; `CC(=O)NC1CCN(c2ccc(NC(=O)c3ccc(C)c(Oc4nc(-c5cccnc5)nc5ccn(C)c45)c3)cc2C(F)(F)F)CC1` [III-v-2]: under 4 nM; `CC(=O)NCC1CCN(c2ccc(NC(=O)c3ccc(C)c(Oc4nc(-c5ccncc5)nc5ccn(C)c45)c3)cc2C(F)(F)F)CC1` [III-v-3]: 23800 nM. The same measure, in the same setting: next, `CCC(=O)NCC1CCN(c2ccc(NC(=O)c3ccc(C)c(Oc4nc(-c5cccnc5)nc5ccn(C)c45)c3)cc2C(F)(F)F)CC1` [III-v-4]: under 4 nM. Same read-out and setting: next, `CCC(=O)NCC1CCN(c2ccc(NC(=O)c3ccc(C)c(Oc4nc(-c5cccnc5)nc5ccn(C)c45)c3)cc2C(F)(F)F)CC1` [III-v-5]: under 4 nM; `CC(=O)NCC1CCN(c2ccc(NC(=O)c3ccc(C)c(Oc4nc(-c5cccnc5)nc5ccn(C)c45)c3)cc2C(F)(F)F)CC1` [III-v-6]: under 4 nM; `CCC(=O)NC1CCN(c2ccc(NC(=O)c3ccc(C)c(Oc4nc(-c5cccnc5)nc5ccn(C)c45)c3)cc2C(F)(F)F)CC1` [III-v-7]: 148000 nM.

Regarding `CCS(=O)(=O)NC1CCN(c2ccc(NC(=O)c3ccc(C)c(Oc4nc(-c5cccnc5)nc5ccn(C)c45)c3)cc2C(F)(F)F)CC1` [III-v-10], the GI50 on CCDC6-RET-BaF3 was under 4 nM. Still for that read-out and setting: next, `CCC(=O)NCC1CCN(c2ccc(NC(=O)c3ccc(C)c(Oc4nc(-c5ccncc5)nc5cc[nH]c45)c3)cc2C(F)(F)F)CC1` [III-v-13]: 18300 nM.
